Measured values published in the OligoGym collection.
After the bases stand the sugars from the 5' end (letter, count) and the backbone: PS all phosphorothioate, else s phosphorothioate and o phosphodiester by linkage. Methylation of C is not given here. l = locked nucleic acid (LNA); d = 2'-deoxy (DNA)

Biological target: SNHG14
Conditions: ASO
[1] = Mouse Primary Neuronal Cell, 0.005 µM

Sequence: TGCTCACTAACTACAC (sugars l3 d10 l3, PS)
- target mRNA inhibition (Human Neuronal Cell, 0.2 µM): 22%
- target mRNA inhibition (Human Neuronal Cell, 1 µM): 9%

Sequence: TGTCATCTACAAATCA (sugars l4 d10 l2, PS)
- target mRNA inhibition (Human Neuronal Cell, 0.2 µM): 50%
- target mRNA inhibition (Human Neuronal Cell, 1 µM): 46%

Sequence: TGTCTATTCTCTTCATT (sugars l4 d11 l2, PS)
- target mRNA inhibition (Human Neuronal Cell, 0.2 µM): 37%
- target mRNA inhibition (Human Neuronal Cell, 1 µM): 30%

Sequence: TGTTTATACCCTTTCC (sugars l4 d10 l2, PS)
- target mRNA inhibition (Human Neuronal Cell, 0.2 µM): 58%
- target mRNA inhibition (Human Neuronal Cell, 1 µM): 56%

Sequence: TGTTTATACCCTTTCCAA (sugars l1 d4 l1 d9 l3, PS)
- target mRNA inhibition (Human Neuronal Cell, 7.5 µM): 56%

Sequence: TGTTTATACCCTTTCCAA (sugars lldlddddddddddldll, PS)
- target mRNA inhibition (Human Neuronal Cell, 7.5 µM): 57%

Sequence: TGTTTCCATCTACTATTA (sugars lddldddddddddlldll, PS)
- target mRNA inhibition (Human Neuronal Cell, 7.5 µM): 63%

Sequence: TGTTTCCATCTACTATTA (sugars ldlldlddddddddddll, PS)
- target mRNA inhibition (Human Neuronal Cell, 7.5 µM): 60%

Sequence: TTAAATCCAGCATTCA (sugars l3 d10 l3, PS)
- target mRNA inhibition (Human Neuronal Cell, 0.2 µM): 54%
- target mRNA inhibition (Human Neuronal Cell, 1 µM): 66%

Sequence: TTACACATGTATATCC (sugars l3 d10 l3, PS)
- target mRNA inhibition (Human Neuronal Cell, 0.2 µM): 41%
- target mRNA inhibition (Human Neuronal Cell, 1 µM): 36%

Sequence: TTACACTTAATTATACTTCC (sugars l2 d4 l1 d11 l2, PS)
- target mRNA inhibition (Human Neuronal Cell, 7.5 µM): 41%

Sequence: TTACACTTAATTATACTTCC (sugars ldddddldddddddldldll, PS)
- target mRNA inhibition (Human Neuronal Cell, 7.5 µM): 61%

Sequence: TTACACTTAATTATACTTCC (sugars ldllddldddddddldddll, PS)
- target mRNA inhibition (Human Neuronal Cell, 7.5 µM): 64%

Sequence: TTACCTACATCTCATACT (sugars l2 d14 l2, PS)
- target mRNA inhibition (Human Neuronal Cell, 0.2 µM): 5%
- target mRNA inhibition (Human Neuronal Cell, 1 µM): 14%
- target mRNA inhibition (Human Neuronal Cell, 5 µM): 17%
- target mRNA inhibition [1]: 77.1%

Sequence: TTACCTACATCTCATACTT (sugars l3 d13 l3, PS)
- target mRNA inhibition (Human Neuronal Cell, 0.2 µM): -12%
- target mRNA inhibition (Human Neuronal Cell, 1 µM): -3%
- target mRNA inhibition (Human Neuronal Cell, 5 µM): 13%
- target mRNA inhibition [1]: 86.7%

Sequence: TTACTCTTTGATTTCAT (sugars l3 d11 l3, PS)
- target mRNA inhibition (Human Neuronal Cell, 0.2 µM): 34%
- target mRNA inhibition (Human Neuronal Cell, 1 µM): 34%

Sequence: TTATACACCATCATTAT (sugars l3 d11 l3, PS)
- target mRNA inhibition (Human Neuronal Cell, 0.2 µM): 47%
- target mRNA inhibition (Human Neuronal Cell, 1 µM): 52%

Sequence: TTATACCTTTCTTTAACC (sugars l4 d12 l2, PS)
- target mRNA inhibition (Human Neuronal Cell, 0.2 µM): 38%
- target mRNA inhibition (Human Neuronal Cell, 1 µM): 57%

Sequence: TTATACCTTTCTTTAACCCT (sugars lddddlddddddddldddll, PS)
- target mRNA inhibition (Human Neuronal Cell, 7.5 µM): 58%

Sequence: TTATACCTTTCTTTAACCCT (sugars ldlddlddddddddddddll, PS)
- target mRNA inhibition (Human Neuronal Cell, 7.5 µM): 56%

Sequence: TTATAGCCATTCTATCT (sugars l1 d1 l1 d9 l5, PS)
- target mRNA inhibition (Human Neuronal Cell, 7.5 µM): 55%

Sequence: TTATAGCCATTCTATCT (sugars l1 d1 l3 d10 l2, PS)
- target mRNA inhibition (Human Neuronal Cell, 7.5 µM): 67%

Sequence: TTATAGCCATTCTATCT (sugars l1 d10 l1 d1 l4, PS)
- target mRNA inhibition (Human Neuronal Cell, 7.5 µM): 53%

Sequence: TTATAGCCATTCTATCT (sugars l1 d10 l3 d1 l2, PS)
- target mRNA inhibition (Human Neuronal Cell, 7.5 µM): 51%

Sequence: TTATAGCCATTCTATCT (sugars l2 d9 l1 d1 l4, PS)
- target mRNA inhibition (Human Neuronal Cell, 7.5 µM): 49%

Sequence: TTATAGCCATTCTATCT (sugars l2 d9 l1 d2 l3, PS)
- target mRNA inhibition (Human Neuronal Cell, 7.5 µM): 53%

Sequence: TTATAGCCATTCTATCT (sugars l2 d13 l2, PS)
- target mRNA inhibition (Human Neuronal Cell, 7.5 µM): 48%

Sequence: TTATAGCCATTCTATCT (sugars l3 d9 l1 d2 l2, PS)
- target mRNA inhibition (Human Neuronal Cell, 7.5 µM): 52%

Sequence: TTATAGCCATTCTATCT (sugars l3 d12 l2, PS)
- target mRNA inhibition (Human Neuronal Cell, 7.5 µM): 59%

Sequence: TTATAGCCATTCTATCT (sugars l4 d11 l2, PS)
- target mRNA inhibition (Human Neuronal Cell, 0.2 µM): 63%
- target mRNA inhibition (Human Neuronal Cell, 1 µM): 69%

Sequence: TTATAGCCATTCTATCT (sugars ldddldddddddlldll, PS)
- target mRNA inhibition (Human Neuronal Cell, 7.5 µM): 24%

Sequence: TTATAGCCATTCTATCT (sugars lddldddddddldldll, PS)
- target mRNA inhibition (Human Neuronal Cell, 7.5 µM): 25%

Sequence: TTATAGCCATTCTATCT (sugars ldlddddddddldllll, PS)
- target mRNA inhibition (Human Neuronal Cell, 7.5 µM): 49%

Sequence: TTATAGCCATTCTATCT (sugars ldlddddddddlldlll, PS)
- target mRNA inhibition (Human Neuronal Cell, 7.5 µM): 43%

Sequence: TTATAGCCATTCTATCT (sugars ldlllddddddldddll, PS)
- target mRNA inhibition (Human Neuronal Cell, 7.5 µM): 44%

Sequence: TTATTCTGACACACTT (sugars l3 d10 l3, PS)
- target mRNA inhibition (Human Neuronal Cell, 0.2 µM): 35%
- target mRNA inhibition (Human Neuronal Cell, 1 µM): 35%

Sequence: TTATTCTTACCGTCTTT (sugars l2 d11 l4, PS)
- target mRNA inhibition (Human Neuronal Cell, 0.2 µM): 61%
- target mRNA inhibition (Human Neuronal Cell, 1 µM): 65%

Sequence: TTATTTCCATTTATTTTCA (sugars ldldlddddddddllldll, PS)
- target mRNA inhibition (Human Neuronal Cell, 7.5 µM): 62%

Sequence: TTCCATGCAAACTTTA (sugars l4 d10 l2, PS)
- target mRNA inhibition (Human Neuronal Cell, 0.2 µM): 49%
- target mRNA inhibition (Human Neuronal Cell, 1 µM): 64%

Sequence: TTCCTTTAATGCTTCTA (sugars l4 d11 l2, PS)
- target mRNA inhibition (Human Neuronal Cell, 0.2 µM): 55%
- target mRNA inhibition (Human Neuronal Cell, 1 µM): 65%

Sequence: TTCTACTATACTTTCCTCT (sugars l1 d13 l1 d2 l2, PS)
- target mRNA inhibition (Human Neuronal Cell, 7.5 µM): 47%

Sequence: TTCTACTATACTTTCCTCT (sugars ldddddddddddldlddll, PS)
- target mRNA inhibition (Human Neuronal Cell, 7.5 µM): 60%

Sequence: TTCTGTATACACCATCC (sugars l1 d1 l2 d11 l2, PS)
- target mRNA inhibition (Human Neuronal Cell, 7.5 µM): 55%

Sequence: TTCTGTATACACCATCC (sugars l1 d2 l1 d11 l2, PS)
- target mRNA inhibition (Human Neuronal Cell, 7.5 µM): 56%

Sequence: TTCTGTATACACCATCC (sugars l3 d1 l1 d10 l2, PS)
- target mRNA inhibition (Human Neuronal Cell, 7.5 µM): 54%

Sequence: TTCTGTATACACCATCC (sugars ldldlddddddddddll, PS)
- target mRNA inhibition (Human Neuronal Cell, 7.5 µM): 62%
